pIC50: −log10 of the molar value. Where a name gives a salt, the structure may show the parent alone.
Target: T1, human TRPM8 (Homo sapiens, UniProt Q7Z2W7)
T1 construct: expressed in transfected cells; host or cells: HEK293
Test: Menthol-induced Ca2+ influx in HEK293 cells stably expressing human TRPM8
Type: cell-based
Conditions: 30 microM menthol-induced Ca2+ influx, read-out: IC50 against TRPM8
How it was run: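 HEK293 cells stably expressing human TRPM8 were loaded with Fluo4-AM for 1 h at room temperature, preincubated 5 min with compound, then challenged with 30 microM menthol. Calcium rise was read by FDSS imaging. IC50 came from 11-point curves using duplicate-well means.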

T1 sequence (Q7Z2W7 whole entry): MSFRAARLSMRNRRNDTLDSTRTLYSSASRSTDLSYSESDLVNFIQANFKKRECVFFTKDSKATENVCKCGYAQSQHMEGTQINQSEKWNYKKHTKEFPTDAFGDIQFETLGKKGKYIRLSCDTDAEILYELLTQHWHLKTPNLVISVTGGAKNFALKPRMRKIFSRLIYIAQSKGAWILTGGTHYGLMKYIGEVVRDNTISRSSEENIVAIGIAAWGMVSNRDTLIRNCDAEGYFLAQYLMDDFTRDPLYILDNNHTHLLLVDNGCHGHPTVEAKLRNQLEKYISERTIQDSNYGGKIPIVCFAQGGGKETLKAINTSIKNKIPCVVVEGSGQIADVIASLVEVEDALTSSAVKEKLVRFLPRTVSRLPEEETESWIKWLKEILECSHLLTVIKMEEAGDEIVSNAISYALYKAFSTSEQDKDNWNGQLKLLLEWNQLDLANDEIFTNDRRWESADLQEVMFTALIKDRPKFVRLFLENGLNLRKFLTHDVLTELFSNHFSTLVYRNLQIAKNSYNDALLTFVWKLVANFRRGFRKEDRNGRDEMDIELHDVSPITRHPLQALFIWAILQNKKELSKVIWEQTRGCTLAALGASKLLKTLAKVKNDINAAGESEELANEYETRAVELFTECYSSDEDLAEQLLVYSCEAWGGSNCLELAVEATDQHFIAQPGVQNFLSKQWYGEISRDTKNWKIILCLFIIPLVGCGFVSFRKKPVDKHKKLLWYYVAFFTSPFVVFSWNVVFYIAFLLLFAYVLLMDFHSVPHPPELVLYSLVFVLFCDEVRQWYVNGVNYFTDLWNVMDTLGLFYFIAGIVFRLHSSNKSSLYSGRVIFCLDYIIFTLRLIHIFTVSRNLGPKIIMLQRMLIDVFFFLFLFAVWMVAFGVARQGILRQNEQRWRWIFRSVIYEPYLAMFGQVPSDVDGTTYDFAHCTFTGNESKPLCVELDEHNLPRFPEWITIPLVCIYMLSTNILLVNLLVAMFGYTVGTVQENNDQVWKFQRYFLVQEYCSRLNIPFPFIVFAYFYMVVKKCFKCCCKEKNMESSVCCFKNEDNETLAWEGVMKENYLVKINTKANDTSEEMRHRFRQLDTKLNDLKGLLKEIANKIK

Row | SMILES | pIC50
1 | Cc1nc2cccnc2n1-c1ccc(C(=O)CN2CC3(CCC(F)(F)CC3)OC2=O)cc1 [Example 22-2] | > 6.30
2 | Cc1c(C(=O)CN2CC3(CCC(F)(F)CC3)OC2=O)ccn1-c1ccccc1 [Example 4-9] | > 6.30
3 | Cc1cc(C(=O)CN2C(=O)NC3(CCC(F)(F)CC3)C2=O)sc1-c1cccc(C(N)=O)c1 [Example 14-18] | > 6.30
4 | O=C(CN1C(=O)NC2(CCCCC2)C1=O)c1ccc(Oc2ccccc2Cl)nc1 [Example 20-5] | > 6.30
5 | O=C(CN1C(=O)NC2(CCC(F)(F)CC2)C1=O)c1ccc(-n2c(CO)nc3cccnc32)cc1 [Example 28-4, 8,8-difluoro-3-(2-(4-(2-(hydroxymethyl)-3H-imidazo[4,5-b]pyridin-3-yl)phenyl)-2-oxoethyl)-1,3-diazaspiro[4.5]decane-2,4-dione] | > 6.30
6 | O=C(CN1C(=O)NC2(CCC(F)(F)CC2)C1=O)c1ccc(-c2ccccc2CN2CCCC2)cc1 [Example 6-104] | > 6.30
7 | Nc1cccnc1-c1ccc(C(=O)CN2C(=O)NC3(CCC(F)(F)CC3)C2=O)cc1 [Example 6-80] | > 6.30
8 | Cc1nc(C(=O)CN2C(=O)NC3(CCC(F)(F)CC3)C2=O)sc1-c1cncc(C#N)c1 [Example 18-13] | > 6.30
9 | Cc1c(C(=O)CN2C(=O)NC3(CCCCC3)C2=O)nn(C)c1-c1cccnc1 [Example 4-8] | > 6.30
10 | Cc1cc2ccccc2n1-c1ccc(C(=O)CN2C(=O)NC3(CCC(F)(F)CC3)C2=O)cc1 [Example 19-19] | > 6.30
11 | O=C(CN1C(=O)NC2(CCC(F)(F)CC2)C1=O)c1ccc(-c2cccc3c2CCN3)cc1 [Example 6-72] | > 6.30
12 | N#Cc1cccc(-c2ccc(C(=O)CN3C(=O)NC4(CCC(F)(F)CC4)C3=O)cc2Cl)c1 [Example 13-68] | > 6.30
13 | Cc1ncccc1-c1sc(C(=O)CN2C(=O)NC3(CCC(F)(F)CC3)C2=O)nc1C [Example 18-8] | > 6.30
14 | O=C(CN1C(=O)NC2(CCCCC2)C1=O)c1ccc(-c2ccccc2F)nc1 [Example 9-4] | > 7.00
15 | CCc1nc2cccnc2n1-c1ccc(C(=O)CN2C(=O)NC3(CCC(F)(F)CC3)C2=O)cc1 [Example 24-2] | > 6.30
16 | CCc1cc(C(=O)CN2C(=O)NC3(CCCCC3)C2=O)c(C)n1-c1cc(C)on1 [Example 1-14] | > 6.30

Row | SMILES | pIC50
17 | Cc1nc(C(=O)CN2C(=O)NC3(CCC(F)(F)CC3)C2=O)sc1-c1cncc(F)c1 [Example 18-9] | > 7.00
18 | Cc1cccc(-n2c(C)nc(C(=O)CN3C(=O)NC4(CCC(F)(F)CC4)C3=O)c2C)c1 [Example 2-12] | > 7.00
19 | O=C1Cc2c(cccc2-c2ccc(C(=O)CN3C(=O)NC4(CCC(F)(F)CC4)C3=O)cc2)N1 [Example 13-44] | > 7.00
20 | Cc1ccncc1-c1ccc(C(=O)CN2C(=O)NC3(CCC(F)(F)CC3)C2=O)cc1Cl [Example 13-23] | > 7.00
21 | Cc1nc(C(=O)CN2C(=O)NC3(CCC(F)(F)CC3)C2=O)n(C)c1-c1cccc2ccncc12 [Example 17-9] | > 7.00
22 | O=C(CN1C(=O)NC2(CCC(F)(F)CC2)C1=O)c1ccc(-c2ccccc2CCO)cc1 [Example 6-106] | > 7.00
23 | O=C(CN1C(=O)NC2(CCC(F)(F)CC2)C1=O)c1ccc(-c2cnccc2CO)nc1 [Example 9-24] | > 7.00
24 | Cn1c(C(=O)CN2C(=O)NC3(CCC(F)(F)CC3)C2=O)ccc1-c1cncc(F)c1 [Example 16-31] | > 6.30
25 | O=C(CN1C(=O)NC2(CCC(F)(F)CC2)C1=O)c1ccc(-c2cncc3[nH]ccc23)nc1 [Example 9-23] | > 7.00
26 | O=C(CN1C(=O)NC2(CCC(F)(F)CC2)C1=O)c1ccc(-c2cccnc2OCCO)cc1 [Example 6-17] | > 7.00
27 | Cc1cc(C(=O)CN2C(=O)NC3(CCC(F)(F)CC3)C2=O)sc1-c1cccnc1C [Example 14-9] | > 7.00
28 | Cc1nc(C(=O)CN2C(=O)NC3(CCC(F)(F)CC3)C2=O)n(C)c1-c1cccc(C#N)c1 [Example 17-8] | > 7.00
29 | O=C(CN1C(=O)NC2(CCC(F)(F)CC2)C1=O)c1ccc(N2CCCc3ccccc32)nc1 [Example 19-11] | > 7.00
30 | O=C(CN1C(=O)NC2(CCC(F)(F)CC2)C1=O)c1ccc(-c2cnn3ccccc23)cc1 [Example 6-67] | > 7.00
31 | O=C(CN1CC2(CCC(F)(F)CC2)OC1=O)c1ccc(-c2cccnc2CO)cc1 [Example 7-18] | > 6.30

More lines, now with the values ahead:

Row | pIC50 | SMILES
32 | > 7.00 | O=C(CN1C(=O)NC2(CCC(F)(F)CC2)C1=O)c1ccc(-c2cccc3cnccc23)c(F)c1 [Example 13-22]
33 | > 7.00 | O=C(CN1C(=O)NC2(CCC(F)(F)CC2)C1=O)c1ccc(-n2c(CO)nc3ccccc32)cc1 [Example 5-15, 8,8-difluoro-3-(2-(4-(2-(hydroxymethyl)-1H-benzo[d]imidazol-1-yl)phenyl)-2-oxoethyl)-1,3-diazaspiro[4.5]decane-2,4-dione]
34 | > 7.00 | O=C(CN1C(=O)NC2(CCC(F)(F)CC2)C1=O)c1ccc(-c2ccccc2CO)nc1 [Example 9-17]
35 | > 7.00 | Cc1ccc2nc(C)n(-c3ccc(C(=O)CN4C(=O)NC5(CCCCCC5)C4=O)cc3)c2n1 [Example 5-30]
36 | > 7.00 | Cc1ccncc1-c1ccc(C(=O)CN2C(=O)NC3(CCC(F)(F)CC3)C2=O)n1C [Example 16-2]
37 | > 7.00 | O=C(CN1C(=O)NC2(CCC(F)(F)CC2)C1=O)c1ccc(-n2cnc3ccccc32)nc1 [Example 5-12]
38 | > 7.00 | O=C(CN1C(=O)NC2(CCC(F)(F)CC2)C1=O)c1ccc(Sc2ncccn2)cc1 [Example 5-39]
39 | > 7.00 | NCc1ccccc1-c1ccc(C(=O)CN2C(=O)NC3(CCC(F)(F)CC3)C2=O)cc1 [Example 6-55, 3-(2-(2′-(aminomethyl)-[1,1′-biphenyl]-4-yl)-2-oxoethyl)-8,8-difluoro-1,3-diazaspiro[4.5]decane-2,4-dione hydrochloride]
40 | > 7.00 | Cc1cnc(-n2c(C)cc(C(=O)CN3C(=O)NC4(CCC(F)(F)CC4)C3=O)c2C)s1 [Example 3-17]
41 | > 7.00 | O=C1Cc2c(cccc2-c2ccc(C(=O)CN3C(=O)NC4(CCC(F)(F)CC4)C3=O)cn2)N1 [Example 9-19]
42 | > 7.00 | O=C(CN1C(=O)NC2(CCC(F)(F)CC2)C1=O)c1ccc(-n2c(=O)[nH]c3ccccc32)cc1 [Example 19-22]
43 | > 7.00 | Cc1c(N)cncc1-c1ccc(C(=O)CN2C(=O)NC3(CCC(F)(F)CC3)C2=O)cc1 [Example 6-76]
44 | > 7.00 | Cc1ncccc1-c1ccc(C(=O)CN2C(=O)OC3(CCC(F)(F)CC3)C2=O)cc1 [Example 13-72]
45 | > 7.00 | CCOc1nc2ccc(C)nc2n1-c1ccc(C(=O)CN2C(=O)NC3(CCC(F)(F)CC3)C2=O)cc1 [Example 26-4]
46 | > 7.00 | Cc1cc(C(=O)CN2C(=O)NC3(CCC(F)(F)CC3)C2=O)sc1-c1cnccc1CO [Example 14-6]
47 | > 7.00 | N#Cc1cccnc1Oc1ccc(C(=O)CN2C(=O)NC3(CCC(F)(F)CC3)C2=O)cc1 [Example 21-1, 2-(4-(2-(8,8-difluoro-2,4-dioxo-1,3-diazaspiro[4.5]decan-3-yl)acetyl)phenoxy)nicotinonitrile]
48 | > 7.00 | Cc1cc(C(=O)CN2C(=O)NC3(CCC(F)(F)CC3)C2=O)ccc1-c1cccc(C#N)c1 [Example 13-11]
49 | > 7.00 | Cc1ccncc1-c1c(F)cc(C(=O)CN2C(=O)NC3(CCC(F)(F)CC3)C2=O)cc1F [Example 13-30]
50 | > 7.00 | Cc1nc(C(=O)CN2C(=O)NC3(CCC(F)(F)CC3)C2=O)sc1-c1cc(F)cc(F)c1 [Example 18-11]
51 | > 7.00 | O=C(CN1C(=O)NC2(CCC(F)(F)CC2)C1=O)c1ccc(-c2nncc3ccccc23)cc1 [Example 6-18]

Row | pIC50 | SMILES
52 | > 7.00 | O=C(CN1C(=O)OC2(CCC(F)(F)CC2)C1=O)c1ccc(-c2ccccn2)cc1 [Example 7-24]
53 | > 7.00 | O=C(CN1C(=O)NC2(CCC(F)(F)CC2)C1=O)c1ccc(-c2cccc3[nH]ccc23)cc1 [Example 13-42]
54 | > 7.00 | O=C(CN1C(=O)NC2(CCC(F)(F)CC2)C1=O)c1ccc(-n2ccc3cccnc32)nc1 [Example 19-10]
55 | > 7.00 | Cc1ccccc1-c1ccc(C(=O)CN2C(=O)NC3(CCC(F)(F)CC3)C2=O)nc1 [Example 10-2]
56 | > 7.00 | CCOc1ncccc1-c1ccc(C(=O)CN2C(=O)NC3(CCC(F)(F)CC3)C2=O)cc1 [Example 6-39]
57 | > 7.00 | O=C(CN1C(=O)NC2(CCC(F)(F)CC2)C1=O)c1ccc(-n2ccc3cccnc32)cc1 [Example 19-17]
58 | > 7.00 | O=C(CN1C(=O)NC2(CCC(F)(F)CC2)C1=O)c1ccc(-c2ncccc2Cl)cc1 [Example 6-22]
59 | > 7.00 | O=C(CN1C(=O)NC2(CCC(F)(F)CC2)C1=O)c1ccc(-c2nccc3cnccc23)cc1 [Example 6-37]
60 | > 7.00 | Cc1cc(C(=O)CN2C(=O)NC3(CCC(F)(F)CC3)C2=O)ccc1-c1ccccc1 [Example 13-14]
61 | > 7.00 | Cc1cncc(-n2c(C)cc(C(=O)CN3C(=O)NC4(CCC(F)(F)CC4)C3=O)c2C)n1 [Example 3-2]
62 | > 7.00 | O=C(CN1C(=O)NC2(CCC(F)(F)CC2)C1=O)c1ccc(-c2cccc3cnccc23)cc1 [Example 13-41]
63 | > 7.00 | Cc1ncccc1-c1ccc(C(=O)CN2C(=O)NC3(CCCCC3)C2=O)cn1 [Example 9-7]
64 | > 7.00 | Cc1nc2ccc(C(F)(F)F)nc2n1-c1ccc(C(=O)CN2C(=O)NC3(CCC(F)(F)CC3)C2=O)cc1 [Example 5-31]
65 | > 7.00 | Cc1ccnnc1-c1ccc(C(=O)CN2C(=O)OC3(CCC(F)(F)CC3)C2=O)cc1 [Example 7-21]
66 | > 7.00 | Cc1cc(C(=O)CN2C(=O)NC3(CCC(F)(F)CC3)C2=O)n(C)c1-c1cccc2c1CNC2=O [Example 16-17]
67 | > 7.00 | CN(c1ccccc1)c1ccc(C(=O)CN2C(=O)NC3(CCC(F)(F)CC3)C2=O)cn1 [Example 19-9]
68 | > 8.00 | Cc1nc2cccnc2n1-c1ccc(C(=O)CN2C(=O)NC3(CCC(F)(F)CC3)C2=O)cc1 [Example 5-10]
69 | > 7.00 | N#Cc1cnccc1-c1ccc(C(=O)CN2C(=O)NC3(CCC(F)(F)CC3)C2=O)cc1 [Example 6-98]
70 | > 7.00 | Cc1cccc(-n2c(C)cc(C(=O)CN3C(=O)NC4(CCC(F)(F)CC4)C3=O)c2C)c1 [Example 3-5]

Source: patent US10093678B2, “Azaspiro derivatives as TRPM8 antagonists” (RaQualia Pharma Inc., priority 2014, dated 2018)
